Experiment [1] has as its target T1, MetA (HSAT, homoserine acetyl transferase, Rv3341) (Mycobacterium tuberculosis, UniProt P9WJY9).
T1 construct: gene metXA
The experiment in a line: endpoint DTNB CoA release assay. The class given is biochemical. Particulars: read-out: % inhibition at 100 μM.

In experiment [2] the target is T1, MetA (HSAT, homoserine acetyl transferase, Rv3341). The experiment in a line: ThermoFluor, SYPRO Orange. The experiment is classed as binding.

SMILES strings stand for the structures. pKd: −log10 of the molar value. Where only a bound is given, the exact number is not on record here.

T1 sequence (P9WJY9 whole entry, looked up): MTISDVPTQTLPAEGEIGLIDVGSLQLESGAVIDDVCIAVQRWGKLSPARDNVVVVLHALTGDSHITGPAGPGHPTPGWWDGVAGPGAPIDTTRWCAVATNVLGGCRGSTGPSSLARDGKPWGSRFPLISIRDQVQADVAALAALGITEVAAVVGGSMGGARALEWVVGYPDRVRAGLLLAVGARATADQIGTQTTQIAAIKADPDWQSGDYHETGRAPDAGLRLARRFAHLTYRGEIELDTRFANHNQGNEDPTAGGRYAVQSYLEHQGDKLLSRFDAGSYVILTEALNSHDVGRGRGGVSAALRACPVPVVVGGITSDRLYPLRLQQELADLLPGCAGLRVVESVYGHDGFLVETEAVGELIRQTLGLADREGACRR

Turning to `CCN(CC)C(=S)SSC(=S)N(CC)CC` [DIS, disulfiram], the inhibition at 100 µM in experiment [1] was over 50%. Besides, the pKd in experiment [2] is 4.28.
`CN(C)C(=S)SSC(=S)N(C)C` [NSC1771, thiram]: the inhibition at 100 µM in experiment [1] is over 50%.
